Reference: PMC6273209, “Evaluation of the Enantiomer Specific Biokinetics and Radiation Doses of [^18F]Fluspidine—A New Tracer in Clinical Translation for Imaging of σ1 Receptors” (Molecules, 2016)

Experiment: First-in-human PET/CT dosimetry study
Format: in vivo
Conditions: for ED: first-in-human (clinical)
Procedure: The first-in-human use of (S)-(−)-[^18F]fluspidine was authorized by the competent authorities in Germany, the Federal Institute for Drugs and Medical Devices (Bundesamt für Arzneimittel und Medizinprodukte, BfArM) and the Federal Office for Radiation Protection (Bundesamt für Strahlenschutz, BfS) as well as by the local ethics committee and was conducted in accordance with the Declaration of Helsinki. Informed consent was obtained from four healthy volunteers (2 f, 2 m; age: 23 ± 3 years; weight: 56 ± 4 kg). The volunteers were positioned supine with the arms down in a clinical PET/CT system (Biograph 16, Siemens, Erlangen, Germany) and received an intravenous injection of 255 ± 9 MBq (S)-(−)-[^18F]fluspidine. Simultaneously, the PET scan was started. It was divided into a dynamic part up to 2 h p.i. (7 frames) and a static part up to 7 h p.i. The volunteers left the investigation table four times to stretch out. All urine was collected, weighed, and the activity was determined in a gamma-counter (Packard Cobra II 5003 Auto Gamma Counting System, GMI, Ramsey, MN, USA) cross calibrated to the PET/CT system.
The PET images were iteratively (ordered-subsets expectation maximization, OSEM) reconstructed (preclinical: 4 iterations, 6 subsets; clinical: 4 iterations, 8 subsets) and corrected for decay, randoms, scatter, and dead time, μ-maps for attenuation correction of PET-emission data were derived from the CT or MR [49] structural data, respectively. The PET data were re-binned into 10 time frames (preclinical: 4 × 5 min, 1 × 10 min, and 5 × 15 min; clinical: 4 × 12 min, 3 × 16 min, 1 × 32 min, 1 × 40 min, and 1 × 48 min), and the reconstructed PET/MRI and PET/CT images were co-registered manually with ROVER (ABX, advanced chemical compounds, Radeberg, Germany, version 2.1.17). Quantitative evaluation was performed by drawing volumes of interest (VOI) for brain, gallbladder, large intestine, small intestine, stomach, heart, kidneys, liver, lungs, pancreas, red marrow (backbone, pelvis, sternum), spleen, thyroid, testes, and urinary bladder (Figure S4). The PET derived biokinetic data is expressed as percentage of injected activity (dose) per cubic centimeter (%ID/cm^3).
The human dosimetry estimation was performed with the data extrapolated as well as the genuine human data using OLINDA/EXM software. The time-activity curves were estimated by exponential fitting and calculating the time integral, which equals the number of disintegrations (NODs) per organ during the observation period normalized to 1 Becquerel administered activity dose. […] Therefore, activity data of the urinary bladder was derived from the image for each time point. In contrast, for humans the activity concentration data of the urinary bladder was obtained in a more direct approach. At first, the activity and volume of urine was determined in the last frame of the PET scan before each micturition. Afterwards, the voided urine was collected, weighed, and the activity of three aliquots (assuming 1 mL = 1 g) determined with a gamma counter, and the activity of the whole sample estimated. The difference between imaged and sampled urine activity is equal to the residue of radioactive urine in the urinary bladder. To calculate the NOD in the human urinary bladder, the time-activity curve is integrated using a trapezoidal equation (3) %ID˜UB=1/2∑i=1n−1(%IDi+%IDi+1)(ti+1−ti) with the fraction of injected activity %IDi at the time ti and the cumulated activity of the urinary bladder i.e., the NOD %ID˜UB .
Furthermore, the NODs of the gastric system were calculated following the ICRP GI model (ICRP 30) as implemented in OLINDA 1.0. The NODs obtained either from the EXM module or the trapezoidal equation were transferred to OLINDA. The OD for the chosen hermaphroditic adult male phantom is estimated following the MIRD scheme. The S values are pre-calculated and implemented for the respective phantom in OLINDA. […]

[1] = first-in-human PET/CT, adult male model
[2] = first-in-human PET/CT, ICRP 103 weighting
[3] = four volunteers after i.v. injection

SMILES: FCC[C@@H]1OC2(CCN(Cc3ccccc3)CC2)c2ccccc21 [(S)-(−)-[^18F]fluspidine]
- ED (four healthy volunteers, ICRP 103 weighting): 21.0 ± 1.3 μSv/MBq
- ED (four healthy volunteers, ICRP 103 weighting, listed as (S)-(−)-[^18F]Fluspidine): 21.0 μSv/MBq
- OD Adrenals [1]: 15.3 μSv/MBq
- OD Brain [1]: 22.6 μSv/MBq
- OD Breasts [1]: 6.5 μSv/MBq
- OD Gallbladder Wall [1]: 60.7 μSv/MBq
- OD Heart Wall [1]: 17.7 μSv/MBq
- OD Kidneys [1]: 31.1 μSv/MBq
- OD LLI Wall [1]: 16.6 μSv/MBq
- OD Liver [1]: 76.0 μSv/MBq
- OD Lungs [1]: 28.2 μSv/MBq
- OD Muscle [1]: 7.8 μSv/MBq
- OD Osteogenic Cells [1]: 18.0 μSv/MBq
- OD Ovaries [1]: 13.8 μSv/MBq
- OD Pancreas [1]: 15.9 μSv/MBq
- OD Red Marrow [1]: 23.2 μSv/MBq
- OD Skin [1]: 5.3 μSv/MBq
- OD Small Intestine [1]: 56.9 μSv/MBq
- OD Spleen [1]: 24.0 μSv/MBq
- OD Stomach Wall [1]: 31.5 μSv/MBq
- OD Testes [1]: 8.0 μSv/MBq
- OD Thymus [1]: 7.5 μSv/MBq
- OD Thyroid [1]: 8.4 μSv/MBq
- OD Total Body [1]: 11.4 μSv/MBq
- OD ULI Wall [1]: 24.3 μSv/MBq
- OD Urinary Bladder Wall [1]: 24.7 μSv/MBq
- OD Uterus [1]: 13.0 μSv/MBq
- ED Contr. Adrenals [2]: 0.1 μSv/MBq
- ED Contr. Brain [2]: 0.2 μSv/MBq
- ED Contr. Breasts [2]: 0.8 μSv/MBq
- ED Contr. Gallbladder Wall [2]: 0.5 μSv/MBq
- ED Contr. Heart Wall [2]: 0.2 μSv/MBq
- ED Contr. Kidneys [2]: 0.3 μSv/MBq
- ED Contr. LLI Wall [2]: 1.0 μSv/MBq
- ED Contr. Liver [2]: 3.0 μSv/MBq
- ED Contr. Lungs [2]: 3.4 μSv/MBq
- ED Contr. Muscle [2]: 0.1 μSv/MBq
- ED Contr. Osteogenic Cells [2]: 0.2 μSv/MBq
- ED Contr. Ovaries [2]: 1.0 μSv/MBq
- ED Contr. Pancreas [2]: 0.1 μSv/MBq
- ED Contr. Red Marrow [2]: 2.8 μSv/MBq
- ED Contr. Skin [2]: 0.1 μSv/MBq
- ED Contr. Small Intestine [2]: 0.5 μSv/MBq
- ED Contr. Spleen [2]: 0.2 μSv/MBq
- ED Contr. Stomach Wall [2]: 3.8 μSv/MBq
- ED Contr. Testes [2]: 0.8 μSv/MBq
- ED Contr. Thymus [2]: 0.1 μSv/MBq
- ED Contr. Thyroid [2]: 0.3 μSv/MBq
- ED Contr. Total Body [2]: 0.0 μSv/MBq
- ED Contr. ULI Wall [2]: 1.5 μSv/MBq
- ED Contr. Urinary Bladder Wall [2]: 1.0 μSv/MBq
- ED Contr. Uterus [2]: 0.1 μSv/MBq
- ED ICRP 60 (first-in-human, four healthy volunteers, ICRP 60 weighting): 22.1 μSv/MBq
- adverse effects [3]: no adverse effects reported
- changes in vital signs [3]: no significant changes in vital signs
- clearance of the radioligand from organs (human TACs, brain, stomach, liver, spleen): rapidly removed from brain, stomach, liver, and spleen within one hour post injection
- actual ED from the human study in comparison to the extrapolated animal data (human vs extrapolated animal data, p < 0.001): 1.6 fold
